Experimental data: PubChem BioAssay (NCI)
Where “and” joins values, the source holds several entries; their conditions need not be identical. Equal entries are not always repeated.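 Five compound concentrations were applied to cells in 96-well plates for 48 hours; endpoints were derived by simple linear interpolation of the resulting dose-response curve. GI50 = concentration required for 50% inhibition of growth. TGI: total growth inhibition.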

Tests used:
Assay in all cases: NCI-60 cell line screen, 48 h
[1] = system: ACHN renal
[2] = system: UO-31 renal
[3] = system: HOP-62 NSCLC
[4] = system: A549 NSCLC
[5] = system: NCI/ADR-RES ovarian
[6] = system: SNB-19 CNS
[7] = system: CCRF-CEM leukemia
[8] = system: NCI-H460 lung
[9] = system: SK-MEL-5 melanoma
[10] = system: SF-268 CNS

SMILES	GI50 [1]	TGI [1]	GI50 [2]	TGI [2]	GI50 [3]	TGI [3]	GI50 [4]	TGI [4]	GI50 [5]	TGI [5]	GI50 [6]	TGI [6]	GI50 [7]	TGI [7]	GI50 [8]	TGI [8]	GI50 [9]	TGI [9]	GI50 [10]	TGI [10]
C=C1CC/C=C(\C)CC[C@H](C(=C)C)[C@@H](O)/C=C(/CO)CCC1O (stereo partly specified)	> 100 µM	> 100 µM	62.2 µM	> 100 µM	> 100 µM	> 100 µM	74.4 µM	> 100 µM	> 100 µM	> 100 µM	> 100 µM	> 100 µM	24 µM	48.6 µM	54.8 µM	> 100 µM	35.1 µM	> 100 µM	78.4 µM	> 100 µM
O=NN(CCCl)C(=O)NC1CCCCC1	23.2 µM and 82.7 µM	57.6 µM and 153 µM and 182 µM	22 µM and 52.9 µM	54.6 µM and 168 µM and 206 µM	51.9 µM and 113 µM	154 µM and 213 µM	45.6 µM and 92.2 µM	184 µM and 244 µM	–	186 µM	–	118 µM and 194 µM	8.23 µM and 22.6 µM	40.9 µM and 98.4 µM and 57.5 µM	24.1 µM and 67.7 µM	69.2 µM and 124 µM and 187 µM	23 µM and 78.4 µM	78.5 µM and 133 µM and 209 µM	21 µM and 33.6 µM	57.9 µM and 120 µM and 235 µM
CCN1CCN(c2nc(NNC(=O)c3ccccc3)nc(N3CCN(C(c4ccccc4)c4ccccc4)CC3)n2)CC1	2.53 µM	6.56 µM	1.52 µM	3.25 µM	12.7 µM	31.8 µM	3.7 µM	20.2 µM	3.32 µM	14.3 µM	4.28 µM	17.8 µM	2.05 µM	6.36 µM	2.1 µM	4.63 µM	1.73 µM	3.14 µM	11.6 µM	32.7 µM
Cc1ccc(C2=C(Cl)C(=O)C(c3ccc(C)cc3)=C(Cl)C2=O)cc1	–	> 100 µM	–	> 100 µM	–	> 100 µM	–	> 100 µM	–	> 100 µM	–	> 100 µM	–	> 100 µM	–	> 100 µM	–	> 100 µM	–	> 100 µM
O=C(Nc1ccc(C(F)(F)F)cc1[N+](=O)[O-])c1cccnc1	–	> 100 µM	–	> 100 µM	–	> 100 µM	–	> 100 µM	–	> 100 µM	–	> 100 µM	–	> 100 µM	–	36.8 µM	–	> 100 µM	–	30.6 µM
COc1ccc(/C(CC2OC(=O)c3ccccc32)=N\NC(N)=O)cc1 (stereo unspecified)	–	> 100 µM	–	> 100 µM	–	> 100 µM	–	> 100 µM	–	> 100 µM	–	> 100 µM	–	> 100 µM	–	> 100 µM	–	> 100 µM	–	> 100 µM
CC1OC(OC2C(O[C@H]3CC[C@@]4(C)C(=CC[C@H]5[C@@H]6C[C@@H]7O[C@]8(CC[C@@H](C)CO8)[C@@H](C)[C@@H]7[C@@]6(C)CC[C@@H]54)C3)OC(CO)C(OC3OC(CO)C(O)C3O)C2O)C(O)C(O)C1O (stereo partly specified)	–	1.58 µM and 2.12 µM	–	1.5 µM	1.13 µM	1.84 µM and 2.34 µM	0.203 µM	1.3 µM and 0.367 µM	1.19 µM	1.79 µM and 2.44 µM	0.649 µM	1.48 µM and 1.82 µM	–	0.413 µM	–	1.53 µM	0.487 µM	1.43 µM and 1.67 µM	–	1.61 µM and 2.03 µM
CCN(CC)CCOc1ccc2c(C)c(C(=O)OC)oc2c1C(=O)/C=C/c1ccc(OC)cc1	1.85 µM	5.25 µM	1.45 µM	–	28.5 µM	> 55.6 µM	17.6 µM	40.6 µM	2.58 µM	6.53 µM	4.86 µM	13.8 µM	1.35 µM	4.52 µM	3.65 µM	> 67.4 µM	20.4 µM	37.2 µM	3.75 µM	> 28.1 µM
NC(N)=N/N=C/c1c(-c2ccncc2)nc2sc(Cl)cn12	9.28 µM	24.5 µM	8.93 µM	> 22.7 µM	15.2 µM	37.2 µM	20.2 µM	40.4 µM	35.5 µM	> 100 µM	7.62 µM	> 20.6 µM	2 µM	4.58 µM	27.5 µM	> 59.2 µM	18.1 µM	36.2 µM	5.31 µM	15.3 µM
CN(C)c1ccc(N=C2C=CC(=C(C#N)C#N)c3ccccc32)cc1	–	10.6 µM	–	14.2 µM	–	15.3 µM	–	13.7 µM	–	2.34 µM	–	12.7 µM	–	3.46 µM	–	7.08 µM	–	0.713 µM	–	8.1 µM
CC1=C2[C@@H](CC1)[C@]1(C)O[C@@](C3CC3)(C[C@H]1OC(=O)CO)[C@H]2OC(=O)/C=C/c1ccccc1	0.0339 µM	13.2 µM	0.636 µM	20.8 µM	15.4 µM	30.2 µM	13.2 µM	27.3 µM	0.103 µM	14.1 µM	17.6 µM	35.6 µM	17.4 µM	39.7 µM	16.6 µM	33.1 µM	16.7 µM	30.5 µM	4.03 µM	23.1 µM
Nc1ncnc2c1nc(Cl)n2C1OC(CO)C(O)C1O (stereo unspecified)	–	> 100 µM	–	> 100 µM	–	> 100 µM	–	> 100 µM	–	> 100 µM	–	> 100 µM	–	> 25.5 µM	–	> 100 µM	–	> 42.2 µM	–	> 100 µM
COc1cccc(C2C(C#N)=C(N)Oc3cc4c(cc32)OCO4)c1 (stereo unspecified)	2.26 µM	> 100 µM	0.169 µM	> 100 µM	0.0501 µM	27.2 µM	0.0649 µM	42.6 µM	0.0299 µM	0.151 µM	0.0682 µM	> 100 µM	0.0362 µM	19.9 µM	0.0438 µM	12.2 µM	0.0332 µM	3.76 µM	0.317 µM	> 37.8 µM
O=c1[nH]c2ccc([N+](=O)[O-])c(Cl)c2c2ccccc12	–	18.9 µM	–	21.2 µM	–	> 100 µM	–	> 100 µM	–	> 100 µM	–	10.5 µM	–	24.1 µM	–	4.47 µM	–	13 µM	–	10.6 µM
C=C(Cn1c2ccccc2c(=O)c2ccccc21)c1ccc(C(=O)Nc2ccccc2N)cc1	> 100 µM	> 100 µM	2.64 µM	> 100 µM	> 27.3 µM	> 100 µM	28.5 µM	> 100 µM	2.31 µM	> 100 µM	–	> 100 µM	0.224 µM	19.2 µM	4.72 µM	> 100 µM	4.58 µM	> 100 µM	5.74 µM	> 100 µM
O=C(O)Cn1ccc(=O)c2cc([N+](=O)[O-])ccc21	–	> 100 µM	–	> 100 µM	–	> 100 µM	–	> 100 µM	–	> 100 µM	–	> 100 µM	–	> 100 µM	–	> 100 µM	–	> 100 µM	–	> 100 µM
CN(C)c1ccc(C2CC(C)(O)Oc3cc4c(cc32)OCO4)cc1 (stereo unspecified)	–	> 100 µM	–	93.1 µM	–	> 100 µM	–	> 100 µM	–	> 100 µM	–	> 100 µM	–	> 100 µM	–	> 100 µM	–	> 100 µM	–	> 100 µM
COc1cc(/C=C\c2cc(OC)c(OC)c(OC)c2)cc(NS(=O)(=O)c2ccc(Cl)cc2)c1OC	0.586 µM	29.9 µM	0.696 µM	> 100 µM	0.414 µM	> 100 µM	0.716 µM	> 100 µM	0.365 µM	> 100 µM	0.745 µM	> 100 µM	0.388 µM	> 100 µM	0.364 µM	51.4 µM	0.297 µM	1.17 µM	1.1 µM	> 100 µM
O=c1nc2[nH]c3c(-c4n[nH]c(=O)[nH]c4=O)cccc3c2n[nH]1	> 100 µM	> 100 µM	> 100 µM	> 100 µM	> 100 µM	> 100 µM	> 100 µM	> 100 µM	> 100 µM	> 100 µM	> 100 µM	> 100 µM	> 100 µM	> 100 µM	> 100 µM	> 100 µM	> 100 µM	> 100 µM	> 100 µM	> 100 µM
